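Dose response: 5 concentrations. Exposure: 48 h. Format: 96-well plates. Endpoint: linear interpolation; highest concentration if not reached. Abbreviation: GI50, concentration required for 50% inhibition of growth.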 Activity calls are given as the source filed them. No stated cut-off is given here; in the data, active = GI50 up to about 1.1 µM and inactive = higher.
How the values were obtained:
Experiment in all cases: NCI anticancer screen, dose series, 48 h
[1] = tested on: SW-620
[2] = tested on: SF-268
[3] = tested on: UACC-257
[4] = tested on: OVCAR-8
[5] = tested on: LOX IMVI
[6] = tested on: NCI-H522
[7] = tested on: MDA-N
[8] = tested on: OVCAR-3
[9] = tested on: OVCAR-5
[10] = tested on: SNB-19
[11] = tested on: HOP-62
[12] = tested on: A549
[13] = tested on: HT-29
[14] = tested on: RXF 393
[15] = tested on: RPMI-8226
[16] = tested on: SK-MEL-2
[17] = tested on: U-251
[18] = tested on: OVCAR-4
[19] = tested on: SK-OV-3
[20] = tested on: KM12

Measured: GI50

O=C1C(NCCc2ccc(O)c(O)c2)=CC(=O)c2ncccc21
inactive: [1] 14.4 µM | [2] 13.3 µM | [3] 5.36 µM | [4] 13.4 µM | [5] 4.45 µM | [6] 2.36 µM | [7] 2.03 µM | [8] 2.06 µM | [9] 19.7 µM | [10] 18.5 µM | [11] 19.2 µM | [12] 14.9 µM | [13] 30.3 µM | [14] 13.8 µM | [15] 16.6 µM | [16] 3.1 µM | [17] 4.3 µM | [18] 16.9 µM | [19] 15.7 µM | [20] 13.2 µM

COC(=O)C1SC(SC)=NC12c1ccccc1Nc1ccccc12 (stereo not given)
inactive: [1] 36.6 µM | [2] 37.4 µM | [3] 25.7 µM | [4] 33.3 µM | [5] 18 µM | [6] 19.5 µM | [7] 26.8 µM | [8] 18.2 µM | [9] 54.8 µM | [10] 40.5 µM | [11] 41.8 µM | [12] 28.3 µM | [13] 30.8 µM | [14] 67.3 µM | [15] 21.2 µM | [16] 21.5 µM | [17] 25.2 µM | [18] 32.7 µM | [19] 45.8 µM | [20] 41.7 µM

O=C(O)C1C2C=CC(O2)C1C(=O)Nc1ccccc1 (stereo not given)
inactive: [1] > 100 µM | [2] > 100 µM | [3] > 100 µM | [4] > 100 µM | [5] > 100 µM | [6] > 100 µM | [7] > 100 µM | [8] > 100 µM | [9] > 100 µM | [10] > 100 µM | [11] > 100 µM | [12] > 100 µM | [13] > 100 µM | [14] > 100 µM | [15] > 100 µM | [16] > 100 µM | [17] > 100 µM | [18] > 100 µM | [19] > 100 µM | [20] > 100 µM

CN(C)CCSCCO
inactive: [1] > 100 µM | [2] > 100 µM | [3] > 100 µM | [4] > 100 µM | [5] > 100 µM | [6] > 100 µM | [7] > 100 µM | [8] > 100 µM | [9] > 100 µM | [10] > 100 µM | [11] > 100 µM | [12] > 100 µM | [13] > 100 µM | [14] > 100 µM | [15] > 100 µM | [16] > 100 µM | [17] > 100 µM | [18] > 100 µM | [19] > 100 µM | [20] > 100 µM

— ChEMBL document CHEMBL1201862, “PubChem BioAssay data set” (2004)
